Data: patent US8703768B2, “Nitrogen containing heteroaryl compounds” (Hoffmann-La Roche Inc., priority 2010, dated 2014)

target: human PDE10A (Homo sapiens (Human), UniProt Q9Y233); assay: human PDE10A full length Scintillation Proximity Assay (SPA); assay type: biochemical; conditions: 50 nM cGMP and 50 nM [3H]-cGMP, 20 minutes at room temperature; read-out: PDE10A inhibition IC50
Summary of the method: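 Radiometric SPA read-out: after 20 min at room temperature with [^3H]-cGMP/cGMP substrate, zinc sulphate (18 mM) bead stop reagent added and counts read after 1 h. Non-specific signal defined without enzyme; full-length protein used.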

human PDE10A, sequence (Q9Y233 other isoform, or with tags, fused parts or gaps): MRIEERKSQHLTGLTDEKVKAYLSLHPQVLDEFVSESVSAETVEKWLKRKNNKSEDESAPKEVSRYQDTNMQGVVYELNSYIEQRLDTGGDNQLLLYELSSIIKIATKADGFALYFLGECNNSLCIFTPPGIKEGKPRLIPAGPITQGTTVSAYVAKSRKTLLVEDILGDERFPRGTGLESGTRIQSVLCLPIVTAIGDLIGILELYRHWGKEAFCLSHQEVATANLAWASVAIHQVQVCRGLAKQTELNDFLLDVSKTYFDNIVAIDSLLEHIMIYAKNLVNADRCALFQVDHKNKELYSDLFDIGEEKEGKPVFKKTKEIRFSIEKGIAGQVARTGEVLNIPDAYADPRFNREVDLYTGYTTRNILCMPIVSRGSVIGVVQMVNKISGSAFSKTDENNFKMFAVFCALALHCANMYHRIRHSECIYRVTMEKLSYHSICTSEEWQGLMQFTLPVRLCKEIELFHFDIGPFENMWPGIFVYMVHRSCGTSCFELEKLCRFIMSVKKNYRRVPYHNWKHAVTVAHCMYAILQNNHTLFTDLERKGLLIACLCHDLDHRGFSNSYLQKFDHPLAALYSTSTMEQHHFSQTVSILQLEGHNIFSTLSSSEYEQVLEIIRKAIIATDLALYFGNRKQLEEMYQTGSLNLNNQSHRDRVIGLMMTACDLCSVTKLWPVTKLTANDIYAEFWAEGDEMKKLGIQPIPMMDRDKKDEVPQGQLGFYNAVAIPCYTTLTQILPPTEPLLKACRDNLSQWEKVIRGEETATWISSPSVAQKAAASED

| SMILES | IC50 [nM] |
| --- | --- |
| COCC(C)NC(=O)c1ccncc1NC(=O)c1nc(C2CC2)ccc1Nc1cncnc1 (stereo not shown) [Example 72, 6-Cyclopropyl-3-(pyrimidin-5-ylamino)-pyridine-2-carboxylic acid [4-(2-methoxy-1-methyl-ethylcarbamoyl)-pyridin-3-yl]-amide] | 4.2 |
| CCNC(=O)c1ncccc1NC(=O)c1nc(C2CC2)cnc1Nc1cncnc1 [Example 220, 6-Cyclopropyl-3-(pyrimidin-5-ylamino)-pyrazine-2-carboxylic acid (2-ethylcarbamoyl-pyridin-3-yl)-amide] | 2.3 |
| CC(C)(O)CNC(=O)c1cc(OCCO)ccc1NC(=O)c1nc(C2CC2)cnc1Nc1cncnc1 [Example 215, 6-Cyclopropyl-3-(pyrimidin-5-ylamino)-pyrazine-2-carboxylic acid [4-(2-hydroxy-ethoxy)-2-(2-hydroxy-2-methyl-propylcarbamoyl)-phenyl]-amide] | 0.5 |
| CCn1ncc(NC(=O)c2nc(C3CC3)cnc2Nc2cncnc2)c1C(=O)NCC(C)C [Example 202, 6-Cyclopropyl-3-(pyrimidin-5-ylamino)-pyrazine-2-carboxylic acid (1-ethyl-5-isobutylcarbamoyl-1H-pyrazol-4-yl)-amide] | 3.8 |
| CC1(NC(=O)c2ncccc2NC(=O)c2nc(C3CC3)cnc2Nc2cncnc2)COC1 [Example 275, 6-Cyclopropyl-3-(pyrimidin-5-ylamino)-pyrazine-2-carboxylic acid [2-(3-methyl-oxetan-3-ylcarbamoyl)-pyridin-3-yl]-amide] | 0.4 |
| CN(C(=O)c1c(NC(=O)c2nc(C3CC3)cnc2Nc2cncnc2)cnn1C)C1CCOCC1 [Example 231, 6-Cyclopropyl-3-(pyrimidin-5-ylamino)-pyrazine-2-carboxylic acid {1-methyl-5-[methyl-(tetrahydro-pyran-4-yl)-carbamoyl]-1H-pyrazol-4-yl}-amide] | 41.7 |
| CN(C)C1CCN(C(=O)c2nn(C)cc2NC(=O)c2nc(C3CC3)ccc2Nc2cncnc2)C1 (stereo not shown) [Example 37, 6-Cyclopropyl-3-(pyrimidin-5-ylamino)-pyridine-2-carboxylic acid [3-(3-dimethylamino-pyrrolidine-1-carbonyl)-1-methyl-1H-pyrazol-4-yl]-amide] | 18.1 |
| Cn1cc(NC(=O)c2nc(C3CC3)ccc2Nc2cncnc2)c(C(=O)NC2CCCC2)n1 [Example 34, 6-Cyclopropyl-3-(pyrimidin-5-ylamino)-pyridine-2-carboxylic acid (3-cyclopentylcarbamoyl-1-methyl-1H-pyrazol-4-yl)-amide] | 4.5 |
| Cn1ncc(NC(=O)c2nc(C3CC3)cnc2Nc2cncnc2)c1C(=O)N1CCCC1 [Example 156, 6-Cyclopropyl-3-(pyrimidin-5-ylamino)-pyrazine-2-carboxylic acid [1-methyl-5-(pyrrolidine-1-carbonyl)-1H-pyrazol-4-yl]-amide] | 11.2 |
| CNC(=O)c1c(NC(=O)c2nc(C3CC3)cnc2Nc2cncnc2)cnn1C [Example 116, 6-Cyclopropyl-3-(pyrimidin-5-ylamino)-pyrazine-2-carboxylic acid (1-methyl-5-methylcarbamoyl-1H-pyrazol-4-yl)-amide] | 4.5 |
| O=C(Nc1cncnc1C(=O)N1CCC1)c1nc(C2CC2)cnc1Nc1cncnc1 [Example 211, 6-Cyclopropyl-3-(pyrimidin-5-ylamino)-pyrazine-2-carboxylic acid [4-(azetidine-1-carbonyl)-pyrimidin-5-yl]-amide] | 2650 |
| Cn1ncc(NC(=O)c2nc(C3CC3)cnc2Nc2cncnc2)c1C(N)=O [Example 150, 6-Cyclopropyl-3-(pyrimidin-5-ylamino)-pyrazine-2-carboxylic acid (5-carbamoyl-1-methyl-1H-pyrazol-4-yl)-amide] | 8.5 |
| CC(CO)NC(=O)c1nn(C)cc1NC(=O)c1nc(C2CC2)ccc1Nc1cncnc1 (stereo not shown) [Example 45, 6-Cyclopropyl-3-(pyrimidin-5-ylamino)-pyridine-2-carboxylic acid [3-(2-hydroxy-1-methyl-ethylcarbamoyl)-1-methyl-1H-pyrazol-4-yl]-amide] | 17.1 |
